In PubChem BioAssay AID248 (DTP/NCI, 2004):
Toxic doses and inconclusive results are not listed. Cut-off read from the data, not from the text of the source: active = T/C of 150% or more; inactive = T/C below 125%.

System: L1210 leukemia ip in BDF1 mice, survival T/C
Assay: NCI In Vivo Anticancer Drug Screen. Data for tumor model L1210 Leukemia (intraperitoneal) in B6D2F1 (BDF1) mice
Conditions: endpoint: mean survival time, higher = longer survival
Summary of the method: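 Read-out is survival time, reported as the treated-group measurement over the vehicle-control measurement.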

[1] = dose: 25.0 mg/kg/injection, schedule: Q01DX009 (ip), vehicle: saline
[2] = dose: 50.0 mg/kg/injection, schedule: Q01DX009 (ip), vehicle: saline
[3] = dose: 100.0 mg/kg/injection, schedule: Q04DX003 (ip), vehicle: saline with Tween-80
[4] = dose: 100.0 mg/kg/injection, schedule: Q04DX003 (ip), vehicle: saline
[5] = dose: 100.0 mg/kg/injection, schedule: Q01DX001 (ip), vehicle: saline
[6] = dose: 200.0 mg/kg/injection, schedule: Q01DX001 (ip), vehicle: saline
[7] = dose: 400.0 mg/kg/injection, schedule: Q01DX001 (ip), vehicle: saline
[8] = dose: 100.0 mg/kg/injection, schedule: Q04DX003 (ip), vehicle: Klucel (hydroxypropylcellulose) (HPC)
[9] = dose: 200.0 mg/kg/injection, schedule: Q04DX003 (ip), vehicle: Klucel (hydroxypropylcellulose) (HPC)
[10] = dose: 400.0 mg/kg/injection, schedule: Q04DX003 (ip), vehicle: Klucel (hydroxypropylcellulose) (HPC)

Measured: T/C

c1ccc(-n2ncn[n+]2-c2ccccc2)cc1
inactive: dose: 10.0 mg/kg/injection, schedule: Q01DX001 (ip), vehicle: saline 98 % of control | dose: 20.0 mg/kg/injection, schedule: Q01DX001 (ip), vehicle: saline 90 % of control | dose: 40.0 mg/kg/injection, schedule: Q01DX001 (ip), vehicle: saline 95 % of control | dose: 80.0 mg/kg/injection, schedule: Q01DX001 (ip), vehicle: saline 109 % of control

C[N+](C)(C)C1(Cc2ccccc2)c2ccccc2-c2ccccc21
inactive: [1] 93 % of control | dose: 25.0 mg/kg/injection, schedule: Q04DX003 (ip), vehicle: saline 96 % of control | [2] 114 % of control | dose: 50.0 mg/kg/injection, schedule: Q04DX003 (ip), vehicle: saline 99 % of control | [3] 97 % of control | [4] 86 % of control

Nc1cc(C(=O)O)ccc1Cl
inactive: [5] 105 % of control | [6] 95 % of control | [7] 95 % of control

CCOC(=O)N(CCCCCCNC(c1ccccc1)S(=O)(=O)O)c1ccccc1 (stereo unspecified)
inactive: dose: 6.0 mg/kg/injection, schedule: Q01DX009 (ip), vehicle: saline 109 % of control | dose: 12.0 mg/kg/injection, schedule: Q01DX009 (ip), vehicle: saline 103 % of control | [1] 106 % of control | [2] 97 % of control | dose: 100.0 mg/kg/injection, schedule: Q01DX001 (ip), vehicle: carboxymethylcellulose (CMC) 98 % of control | dose: 100.0 mg/kg/injection, schedule: Q01DX009 (ip), vehicle: saline 86 % of control

O=C(O)c1ccc(CNCc2ccccc2)cc1
inactive: dose: 75.0 mg/kg/injection, schedule: Q01DX001 (ip), vehicle: saline 102 % of control | dose: 150.0 mg/kg/injection, schedule: Q01DX001 (ip), vehicle: saline 96 % of control

COC(=O)C(C(=O)OC)C(Br)C(Br)C(Br)c1ccccc1 (stereo unspecified)
inactive: dose: 75.0 mg/kg/injection, schedule: Q01DX001 (ip), vehicle: other 91 % of control | dose: 150.0 mg/kg/injection, schedule: Q01DX001 (ip), vehicle: other 94 % of control | dose: 300.0 mg/kg/injection, schedule: Q01DX001 (ip), vehicle: other 96 % of control

CC(=O)OCC(=O)[C@@]1(O)CC[C@H]2[C@@H]3CCC4=CC(=O)CC[C@]4(C)C3=CC[C@@]21C
inactive: dose: 12.5 mg/kg/injection, schedule: Q04DX003 (ip), vehicle: saline with Tween-80 95 % of control | dose: 25.0 mg/kg/injection, schedule: Q04DX003 (ip), vehicle: saline with Tween-80 93 % of control | dose: 50.0 mg/kg/injection, schedule: Q04DX003 (ip), vehicle: saline with Tween-80 90 % of control

CN(C)c1ccc(/C=N/Nc2ncnc3nc[nH]c23)cc1
inactive: [3] 98 % of control | dose: 200.0 mg/kg/injection, schedule: Q04DX003 (ip), vehicle: saline with Tween-80 96 % of control | dose: 400.0 mg/kg/injection, schedule: Q04DX003 (ip), vehicle: saline with Tween-80 91 % of control

CC1CN=C(c2ccc(O)c(O)c2O)S1 (stereo unspecified)
inactive: dose: 75.0 mg/kg/injection, schedule: Q04DX002 (ip), vehicle: saline with Tween-80 101 % of control | dose: 150.0 mg/kg/injection, schedule: Q04DX002 (ip), vehicle: saline with Tween-80 101 % of control | dose: 300.0 mg/kg/injection, schedule: Q04DX002 (ip), vehicle: saline with Tween-80 93 % of control

CC1OC(OC2CCC3(C)C(CCC4C3CC(O)C3(C)C(C5=CC(=O)OC5)CCC43O)C2)CC(O)C1OC1CC(O)C(OC2CC(O)C(OC3OC(CO)C(O)C(O)C3O)C(C)O2)C(C)O1 (stereo unspecified)
inactive: dose: 4.0 mg/kg/injection, schedule: Q01DX015 (sc), vehicle: steriod suspending solution 96 % of control | dose: 8.0 mg/kg/injection, schedule: Q01DX015 (sc), vehicle: steriod suspending solution 104 % of control | dose: 16.0 mg/kg/injection, schedule: Q01DX015 (sc), vehicle: steriod suspending solution 102 % of control | dose: 32.0 mg/kg/injection, schedule: Q01DX015 (sc), vehicle: steriod suspending solution 98 % of control | [5] 100 % of control | [6] 101 % of control | [7] 100 % of control

c1cnc2c(c1)Oc1cccnc1N2
inactive: dose: 50.0 mg/kg/injection, schedule: Q01DX001 (ip), vehicle: Klucel (hydroxypropylcellulose) (HPC) 98 % of control | dose: 100.0 mg/kg/injection, schedule: Q01DX001 (ip), vehicle: Klucel (hydroxypropylcellulose) (HPC) 92 % of control | dose: 200.0 mg/kg/injection, schedule: Q01DX001 (ip), vehicle: Klucel (hydroxypropylcellulose) (HPC) 90 % of control

O=C(O)CCCC(=O)CCCC(=O)O
inactive: [5] 98 % of control | [6] 93 % of control | [7] 104 % of control

CC(C)CC(C)OC(=O)CCl (stereo unspecified)
inactive: [4] 107 % of control | dose: 200.0 mg/kg/injection, schedule: Q04DX003 (ip), vehicle: saline 105 % of control | dose: 400.0 mg/kg/injection, schedule: Q04DX003 (ip), vehicle: saline 88 % of control

CN1CCN(c2ccccc2)CC1
inactive: dose: 50.0 mg/kg/injection, schedule: Q01DX001 (ip), vehicle: saline with Tween-80 98 % of control
active: dose: 25.0 mg/kg/injection, schedule: Q01DX001 (ip), vehicle: saline with Tween-80 168 % of control | dose: 100.0 mg/kg/injection, schedule: Q01DX001 (ip), vehicle: saline with Tween-80 196 % of control

CCCCNC(=O)Nc1ccc(OC)cc1
inactive: dose: 100.0 mg/kg/injection, schedule: Q01DX009 (ip), vehicle: Klucel (hydroxypropylcellulose) (HPC) 103 % of control | [8] 96 % of control | dose: 200.0 mg/kg/injection, schedule: Q01DX009 (ip), vehicle: Klucel (hydroxypropylcellulose) (HPC) 92 % of control | [9] 93 % of control | dose: 400.0 mg/kg/injection, schedule: Q01DX009 (ip), vehicle: Klucel (hydroxypropylcellulose) (HPC) 90 % of control | [10] 102 % of control

CC(=O)CC(OC(=O)c1cc([N+](=O)[O-])cc([N+](=O)[O-])c1)(C(F)(F)F)C(F)(F)F
inactive: dose: 6.25 mg/kg/injection, schedule: Q01DX009 (ip), vehicle: Klucel (hydroxypropylcellulose) (HPC) 93 % of control | dose: 12.5 mg/kg/injection, schedule: Q01DX009 (ip), vehicle: Klucel (hydroxypropylcellulose) (HPC) 88 % of control | dose: 25.0 mg/kg/injection, schedule: Q01DX009 (ip), vehicle: Klucel (hydroxypropylcellulose) (HPC) 88 % of control

CN(C)c1ccc(CNc2ccc(Cl)cc2)cc1
inactive: [8] 91 % of control | [9] 89 % of control | [10] 93 % of control

CN(C)c1ccc(CNc2cccc(Cl)c2Cl)cc1
inactive: [8] 94 % of control | [9] 96 % of control | [10] 97 % of control

CC1=[N+](CCS(C)(=O)=O)C(C)CCC1 (stereo unspecified)
inactive: dose: 50.0 mg/kg/injection, schedule: Q01DX001 (ip), vehicle: saline 115 % of control | [5] 110 % of control | [6] 106 % of control | [7] 106 % of control

CCCC(=O)Nc1ccc(N)cc1OC
inactive: dose: 5.0 mg/kg/injection, schedule: Q01DX009 (ip), vehicle: saline 100 % of control | dose: 5.0 mg/kg/injection, schedule: Q04DX003 (ip), vehicle: Klucel (hydroxypropylcellulose) (HPC) 96 % of control | dose: 10.0 mg/kg/injection, schedule: Q01DX009 (ip), vehicle: saline 100 % of control | dose: 10.0 mg/kg/injection, schedule: Q04DX003 (ip), vehicle: Klucel (hydroxypropylcellulose) (HPC) 102 % of control | dose: 20.0 mg/kg/injection, schedule: Q01DX009 (ip), vehicle: saline 100 % of control | dose: 20.0 mg/kg/injection, schedule: Q04DX003 (ip), vehicle: Klucel (hydroxypropylcellulose) (HPC) 96 % of control

OC1C=C(Br)C2CCC1CC2 (stereo unspecified)
inactive: dose: 100.0 mg/kg/injection, schedule: Q01DX009 (ip), vehicle: other 113 % of control | dose: 100.0 mg/kg/injection, schedule: Q04DX003 (ip), vehicle: other 96 % of control | dose: 200.0 mg/kg/injection, schedule: Q01DX009 (ip), vehicle: other 100 % of control | dose: 200.0 mg/kg/injection, schedule: Q04DX003 (ip), vehicle: other 107 % of control | dose: 400.0 mg/kg/injection, schedule: Q01DX009 (ip), vehicle: other 92 % of control | dose: 400.0 mg/kg/injection, schedule: Q04DX003 (ip), vehicle: other 100 % of control

CN(N=O)C(=O)NC(=O)NCCCl
inactive: dose: 4.5 mg/kg/injection, schedule: Q01DX001 (ip), vehicle: carboxymethylcellulose (CMC) 118 % of control | dose: 9.0 mg/kg/injection, schedule: Q01DX001 (ip), vehicle: carboxymethylcellulose (CMC) 115 % of control | dose: 26.0 mg/kg/injection, schedule: Q01DX001 (ip), vehicle: carboxymethylcellulose (CMC) 124 % of control
